Earlier results as cited in US6845777B2, “Composition to reduce or quit smoking addiction” (priority 2001, dated 2005).

Columns and labels:
[1] = average adult

Compound: CN1CCCC1c1cccnc1 (centres unmarked) [Nicotine]
- lethal unit dose [1]: about 60 mg
- nicotine from the intestine that reaches the bloodstream in a not metabolized form (in vivo): about 30%
- peak levels in the arteries (in vivo): approximately 40 micro-grams per milliliter of blood
- plasma half-life (in vivo): 0.5 h and 2 h
- nicotine inhaled from a cigarette that is absorbed into the bloodstream (inhalation of tobacco smoke): ≤ 90%
